Laboratory results taken from patent US11970494B2, “6-heteroaryloxy benzimidazoles and azabenzimidazoles as JAK2 inhibitors” (Ajax Therapeutics, Inc., priority 2021, dated 2024).

These compounds were tested against T1, JAK2 (JH1 domain-catalytic, Y1007F,Y1008F) kinase (Homo sapiens, UniProt O60674, Y1007F/Y1008F) (assay: JAK2 Binding Assay (JAK2 JH1 Domain Binding Assay)). Conditions: not given.
T1 construct: made in house; host or cells: transiently transfected HEK293 cells
T1 sequence (O60674 849-1124 Y1007F/Y1008F limits assumed): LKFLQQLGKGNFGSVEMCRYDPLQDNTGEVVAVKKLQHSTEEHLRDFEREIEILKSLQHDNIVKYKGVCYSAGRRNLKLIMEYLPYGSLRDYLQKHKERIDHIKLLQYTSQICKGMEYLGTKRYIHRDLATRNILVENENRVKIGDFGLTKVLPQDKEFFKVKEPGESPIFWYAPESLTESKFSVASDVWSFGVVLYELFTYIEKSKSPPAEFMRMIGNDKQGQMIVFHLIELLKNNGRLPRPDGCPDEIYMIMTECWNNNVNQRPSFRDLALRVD

| Compound | Kd [µM] |
| --- | --- |
| Cn1cc(C(F)(F)F)cc(Nc2nc3ncc(Oc4ccnc(NC(=O)CF)c4)c(Cl)c3n2C)c1=O [Example I-76, N-(4-((7-chloro-1-methyl-2-((1-methyl-2-oxo-5-(trifluoromethyl)-1,2-dihydropyridin-3-yl)amino)-1H-imidazo[4,5-b]pyridin-6-yl)oxy)pyridin-2-yl)-2-fluoroacetamide] | < 0.01 |

Same assay, conditions: JAK2 JH1 domain binding, qPCR detection; read-out: JAK2 Kd

| Kd [µM] | Compound |
| --- | --- |
| < 0.01 | CC(=O)Nc1cc(Oc2cnc3nc(Nc4cc5n(n4)CCC54CCC4)n(C)c3c2C#N)ccn1 [Example I-113, N-(4-((7-cyano-2-((5′,6′-dihydrospiro[cyclobutane-1,4′-pyrrolo[1,2-b]pyrazol]-2′-yl)amino)-1-methyl-1H-imidazo[4,5-b]pyridin-6-yl)oxy)pyridin-2-yl)acetamide] |
| < 0.01 | Cn1c(Nc2cc3n(n2)CCCC3(F)F)nc2ncc(Oc3ccnc(NC(=O)N4CCCC4)c3)c(C#N)c21 [Example I-23, N-(4-((7-cyano-2-((4,4-difluoro-4,5,6,7-tetrahydropyrazolo[1,5-a]pyridin-2-yl)amino)-1-methyl-1H-imidazo[4,5-b]pyridin-6-yl)oxy)pyridin-2-yl)pyrrolidine-1-carboxamide] |
| < 0.01 | CNC(=O)Nc1cc(Oc2cnc3nc(Nc4cc5n(n4)CCC54CCC4)n(C)c3c2C#N)ccn1 [Example I-58, 1-(4-((7-cyano-2-((5′,6′-dihydrospiro[cyclobutane-1,4′-pyrrolo[1,2-b]pyrazol]-2′-yl)amino)-1-methyl-1H-imidazo[4,5-b]pyridin-6-yl)oxy)pyridin-2-yl)-3-methylurea] |
| < 0.01 | Cn1cc(C(F)(F)F)cc(Nc2nc3ncc(Oc4ccnc(NC(=O)C[C@@H]5CCCCO5)c4)c(C#N)c3n2C)c1=O (single isomer, unassigned) [Example I-74-a] |
| < 0.01 | CC(=O)Nc1cc(Oc2cnc3nc(Nc4ccc([C@H]5CCCN5C)c(C(F)(F)F)c4)n(C)c3c2Cl)ccn1 (single isomer, unassigned) [Example I-108-a] |
| > 5 | CN(C)C(=O)Nc1cc(Oc2cnc3nc(Nc4cc5n(n4)CCN(C)C5=O)n(C)c3c2Cl)ccn1 [Example I-46, 3-(4-((7-chloro-1-methyl-2-((5-methyl-4-oxo-4,5,6,7-tetrahydropyrazolo[1,5-a]pyrazin-2-yl)amino)-1H-imidazo[4,5-b]pyridin-6-yl)oxy)pyridin-2-yl)-1,1-dimethylurea] |
| < 0.01 | CC(=O)Nc1cc(Oc2cnc3nc(Nc4cc(OC5CN(C)C5)cc(C(F)(F)F)c4)n(C)c3c2Cl)ccn1 [Example I-103, N-(4-((7-chloro-1-methyl-2-((3-((1-methylazetidin-3-yl)oxy)-5-(trifluoromethyl)phenyl)amino)-1H-imidazo[4,5-b]pyridin-6-yl)oxy)pyridin-2-yl)acetamide] |
| < 0.01 | COC(=O)Nc1cc(Oc2cnc3nc(Nc4cc5n(n4)CCN5C(C)(C)C)n(C)c3c2C#N)ccn1 [Example I-71, methyl(4-((2-((1-(tert-butyl)-2,3-dihydro-1H-imidazo[1,2-b]pyrazol-6-yl)amino)-7-cyano-1-methyl-1H-imidazo[4,5-b]pyridin-6-yl)oxy)pyridin-2-yl)carbamate] |
| < 0.01 | CNC(=O)Nc1cc(Oc2cnc3nc(Nc4cc5n(n4)CCN5C(C)(C)C)n(C)c3c2C#N)ccn1 [Example I-72, 1-(4-((2-((1-(tert-butyl)-2,3-dihydro-1H-imidazo[1,2-b]pyrazol-6-yl)amino)-7-cyano-1-methyl-1H-imidazo[4,5-b]pyridin-6-yl)oxy)pyridin-2-yl)-3-methylurea] |
| < 0.01 | COC(=O)Nc1cc(Oc2cnc3nc(Nc4cc5n(n4)CCOC5(C)C)n(C)c3c2C#N)ccn1 [Example I-43, Methyl(4-((7-cyano-2-((4,4-dimethyl-6,7-dihydro-4H-pyrazolo[5,1-c][1,4]oxazin-2-yl)amino)-1-methyl-1H-imidazo[4,5-b]pyridin-6-yl)oxy)pyridin-2-yl)carbamate] |
| < 0.01 | CO[C@H]1CCN(C(=O)Nc2cc(Oc3cnc4nc(Nc5cc6n(n5)CCC65CCC5)n(C)c4c3C#N)ccn2)C1 [Example I-59, (S)-N-(4-((7-cyano-2-((5′,6′-dihydrospiro[cyclobutane-1,4′-pyrrolo[1,2-b]pyrazol]-2′-yl)amino)-1-methyl-1H-imidazo[4,5-b]pyridin-6-yl)oxy)pyridin-2-yl)-3-methoxypyrrolidine-1-carboxamide] |
| < 0.01 | CNC(=O)Nc1cc(Oc2cnc3nc(Nc4cc(C(F)(F)F)cn(C)c4=O)n(C)c3c2C#N)ccn1 [Example I-5, 1-(4-((7-cyano-1-methyl-2-((1-methyl-2-oxo-5-(trifluoromethyl)-1,2-dihydropyridin-3-yl)amino)-1H-imidazo[4,5-b]pyridin-6-yl)oxy)pyridin-2-yl)-3-methylurea] |
| < 0.01 | CC(=O)Nc1cc(Oc2cnc3nc(Nc4cc(OC[C@@H]5CCCN5C)cc(C(F)(F)F)c4)n(C)c3c2Cl)ccn1 [Example I-96, (S)-N-(4-((7-chloro-1-methyl-2-((3-((1-methylpyrrolidin-2-yl)methoxy)-5-(trifluoromethyl)phenyl)amino)-1H-imidazo[4,5-b]pyridin-6-yl)oxy)pyridin-2-yl)acetamide] |
| < 0.01 | COCCOC(=O)Nc1cc(Oc2cnc3nc(Nc4cc5n(n4)CCCC5(F)F)n(C)c3c2C#N)ccn1 [Example I-32, 2-Methoxyethyl(4-((7-cyano-2-((4,4-difluoro-4,5,6,7-tetrahydropyrazolo[1,5-a]pyridin-2-yl)amino)-1-methyl-1H-imidazo[4,5-b]pyridin-6-yl)oxy)pyridin-2-yl)carbamate] |
| < 0.01 | Cn1c(Nc2cc3n(n2)CCC32CCC2)nc2ncc(Oc3ccnc(NC(=O)O[C@H]4CCOC4)c3)c(C#N)c21 [Example I-120, (S)-tetrahydrofuran-3-yl(4-((7-cyano-2-((5′,6′-dihydrospiro[cyclobutane-1,4′-pyrrolo[1,2-b]pyrazol]-2′-yl)amino)-1-methyl-1H-imidazo[4,5-b]pyridin-6-yl)oxy)pyridin-2-yl)carbamate] |
| < 0.01 | Cn1c(Nc2cc3n(n2)CCC32CCC2)nc2ncc(Oc3ccnc(NC(=O)OC4COC4)c3)c(C#N)c21 [Example I-66, oxetan-3-yl (4-((7-cyano-2-((5′,6′-dihydrospiro[cyclobutane-1,4′-pyrrolo[1,2-b]pyrazol]-2′-yl)amino)-1-methyl-1H-imidazo[4,5-b]pyridin-6-yl)oxy)pyridin-2-yl)carbamate] |
| > 5 | CN1CCn2nc(Nc3nc4ncc(Oc5ccnc(NC(=O)O[C@@H]6CCOC6)c5)c(Cl)c4n3C)cc2C1=O [Example I-53, (R)-tetrahydrofuran-3-yl(4-((7-chloro-1-methyl-2-((5-methyl-4-oxo-4,5,6,7-tetrahydropyrazolo[1,5-a]pyrazin-2-yl)amino)-1H-imidazo[4,5-b]pyridin-6-yl)oxy)pyridin-2-yl)carbamate] |
| < 0.01 | COCC(=O)Nc1cc(Oc2cnc3nc(Nc4cc(C(F)(F)F)n(C5CC6(CCOCC6)C5)n4)n(C)c3c2C#N)ccn1 [Example I-110, N-(4-((2-((1-(7-oxaspiro[3.5]nonan-2-yl)-5-(trifluoromethyl)-1H-pyrazol-3-yl)amino)-7-cyano-1-methyl-1H-imidazo[4,5-b]pyridin-6-yl)oxy)pyridin-2-yl)-2-methoxyacetamide] |
| 0.01 to 0.05 | COC(=O)Nc1cc(Oc2cnc3nc(Nc4cc(C(F)(F)F)n(C5CC6(COC6)C5)n4)n(C)c3c2C#N)ccn1 [Example I-31, Methyl(4-((2-((1-(2-oxaspiro[3.3]heptan-6-yl)-5-(trifluoromethyl)-1H-pyrazol-3-yl)amino)-7-cyano-1-methyl-1H-imidazo[4,5-b]pyridin-6-yl)oxy)pyridin-2-yl)carbamate] |
| < 0.01 | COC(=O)Nc1cc(Oc2cnc3nc(Nc4cc5n(n4)CCCC5(F)F)n(C)c3c2C#N)ccn1 [Example I-22, Methyl(4-((7-cyano-2-((4,4-difluoro-4,5,6,7-tetrahydropyrazolo[1,5-a]dpyridin-2-yl)amino)-1-methyl-1H-imidazo[4,5-b]pyridin-6-yl)oxy)pyridin-2-yl)carbamate] |
| < 0.01 | Cn1c(Nc2cc3n(n2)CCCC3(F)F)nc2ncc(Oc3ccnc(NC(=O)N4CC[C@@H](O)C4)c3)c(C#N)c21 [Example I-28, (R)-N-(4-((7-cyano-2-((4,4-difluoro-4,5,6,7-tetrahydropyrazolo[1,5-c]pyridin-2-yl)amino)-1-methyl-1H-imidazo[4,5-b]pyridin-6-yl)oxy)pyridin-2-yl)-3-hydroxypyrrolidine-1-carboxamide] |
| < 0.01 | CN1CCO[C@H](CC(=O)Nc2cc(Oc3cnc4nc(Nc5cc(C(F)(F)F)cn(C)c5=O)n(C)c4c3C#N)ccn2)C1 (single isomer, unassigned) [Example I-90-a] |
| < 0.01 | CN(C)CCOC(=O)Nc1cc(Oc2cnc3nc(Nc4cc(C(F)(F)F)cn(C)c4=O)n(C)c3c2Cl)ccn1 [Example I-19, 2-(Dimethylamino)ethyl(4-((7-chloro-1-methyl-2-((1-methyl-2-oxo-5-(trifluoromethyl)-1,2-dihydropyridin-3-yl)amino)-1H-imidazo[4,5-b]pyridin-6-yl)oxy)pyridin-2-yl)carbamate] |
| < 0.01 | CC(=O)Nc1cc(Oc2cnc3nc(Nc4cc(C(F)(F)F)n(C5CC6(COC6)C5)n4)n(C)c3c2Cl)ccn1 [Example I-98, N-(4-((2-((1-(2-oxaspiro[3.3]heptan-6-yl)-5-(trifluoromethyl)-1H-pyrazol-3-yl)amino)-7-chloro-1-methyl-1H-imidazo[4,5-b]pyridin-6-yl)oxy)pyridin-2-yl)acetamide] |
| < 0.01 | Cn1cc(C(F)(F)F)cc(Nc2nc3ncc(Oc4ccnc(NC(=O)NC5COC5)c4)c(C#N)c3n2C)c1=O [Example I-123, 1-(4-((7-cyano-1-methyl-2-((1-methyl-2-oxo-5-(trifluoromethyl)-1,2-dihydropyridin-3-yl)amino)-1H-imidazo[4,5-b]pyridin-6-yl)oxy)pyridin-2-yl)-3-(oxetan-3-yl)urea] |
| < 0.01 | CC(=O)Nc1cc(Oc2cnc3nc(Nc4cc5n(n4)CCCC5(F)F)n(C)c3c2C#N)ccn1 [Example I-93, N-(4-((7-cyano-2-((4,4-difluoro-4,5,6,7-tetrahydropyrazolo[1,5-a]pyridin-2-yl)amino)-1-methyl-1H-imidazo[4,5-b]pyridin-6-yl)oxy)pyridin-2-yl)acetamide] |
